Experimental findings from US11766407B2, “Polymerized whey protein encapsulated antioxidant compound and a process for preparation of same” (FoodScience Corporation, priority 2020, dated 2023) are described below.

SMILES strings stand for the structures.

One data set in a line: in vivo. Conditions: male, ICR, mouse, po. As for the experimental part: ICR mice, male, SPF, 3 weeks, weighing from 18 to 22 g were provided by Beijing HFK Bioscience Co., Ltd (Beijing, China).
All mice were housed in plastic lab animal cages in a ventilated room. The room was maintained at 20±2° C. and 60±10% relative humidity with a 12 h light/dark cycle. Water and commercial laboratory complete food for mice were available ad libitum. They were acclimated to this environment for 7 days before treatment. All animal experiments were approved by the Animal Welfare and Research Ethics Committee at Jilin University (Approval ID: SY201905018).
Blood collection. Before blood collection, 30 μL heparin solution was added to 1.5 mL centrifugal tubes and vortexed. The blood samples (about 0.5 mL) was collected by removing one eye of the mice. The blood was centrifuged at 6000 rpm at room temperature for 2 min. The upper plasma was transferred to a new centrifugal tube.
Pharmacokinetic parameters were calculated using a mouse model.

Data set [1] is described as follows: Physicochemical characterization of PWPC-GSH (particle size, zeta potential, rheology, TEM). Particulars: GSH alone.

Turning to `N[C@@H](CCC(=O)N[C@@H](CS)C(=O)NCC(=O)O)C(=O)O` [GSH, Glutathione], in the data set “in vivo”, the area under the curve (AUC) stood at 19200 ng·h/mL, the Cmax amounted to 7370 ng/mL and the time to peak (Tmax) worked out at 2 h. Moreover, the particle size in data set [1] amounted to 287.83±6.18 nm.

In general, AUC refers to concentration integrated over time. One may read the Cmax as the highest concentration seen after dosing. What is called Tmax is the time from dosing to the highest level.
